Seven molecules from patent publication US11998600B2, “Enhancing the therapeutic activity of an immune checkpoint inhibitor” (MaineHealth, priority 2015, dated 2024) can be followed below.

The subject of experiment [1] is YAP. The experiment in a line: Nuclear YAP in HRMVEC stimulated with soluble peptide, with Src or P38MAPK inhibitor. It is filed as cell-based, human. Particulars: inhibitors 10 μM; FIGS. 8E and 8F.
Experiment [2] concerns P38MAPK. The experiment in a line: P38MAPK phosphorylation in HUVECs attached to collagen peptides, Western blot. It is filed as cell-based, human. Particulars: PP2 10 μM vs DMSO; FIG. 7F. The method, then: (§1) Endothelial cells (HUVECs or HRMVECs) were incubated in serum free media with 1 mM MgCl2, 0.2 mM MnCl2 in the presence of a Src inhibitor, PP2, (10 μM) a P38MAPK inhibitor, SB202190 (10 μM) or vehicle only (DMSO) for 10 min at 37° C. Treated cells were then seeded on to immobilized P-1 and P-2 and lysates were collected at 15 min.
Whole cell and CAM tissue lysates were collected in RIPA buffer supplemented with 1× protease inhibitor and 1× phosphatase inhibitor and were run on polyacrylamide gels using denaturing conditions. Prior to loading the gels, 6× sample buffer was added to each of the lysates (final concentration 1×) and boiled for five minutes. Twenty to 50 μg of total protein were loaded into each lane. For detection of proteins larger than 50 kD, 10% gels were used; for proteins smaller than 50 kD 15% gels were used. Gels were run at 60 volts (v) until the dye front passed through the stacking gel, and then the voltage was increased to 100V for the remainder of the separation. Precision Plus protein standards (Bio-Rad) were used to visualize migration. Protein was transferred to nitrocellulose membranes using a wet tank system and blocked for 1 h using 10% non-fat dried milk in tris-buffered saline with 0.01% Tween-20 (TBS-T). […] Western blot bands were quantified using Image J software based on pixel intensity. […]
A general note: Immunoblotting shows a protein as a band on a membrane.

Experiment [3] concerns β3-integrin. As to the kind of experiment: β3-integrin phosphorylation in endothelial cells attached to collagen peptides, Western blot. It is filed as cell-based, human. Particulars: PP2 10 μM vs DMSO; FIG. 7E. The method, then:
as §1
Whole cell and CAM tissue lysates were collected in RIPA buffer supplemented with 1× protease inhibitor and 1× phosphatase inhibitor and were run on polyacrylamide gels using denaturing conditions. Prior to loading the gels, 6× sample buffer was added to each of the lysates (final concentration 1×) and boiled for five minutes. Twenty to 50 μg of total protein were loaded into each lane. For detection of proteins larger than 50 kD, 10% gels were used; for proteins smaller than 50 kD 15% gels were used. […] Western blot bands were quantified using Image J software based on pixel intensity.
(§2) Because both RGD containing peptides bind αvβ3 coupled with the differential effect of these peptides on angiogenesis and inflammation, it was determined whether the RGD peptides differentially altered αvβ3-mediated signaling. […] Therefore, the differential phosphorylation of these protein kinases following the early mechanical-mediated interactions with the RGD containing collagen peptides was assessed. […]

Experiment [4] concerns chick chorioallantoic membrane (CAM). The experiment in a line: Chick CAM angiogenesis assay, induction by RGD collagen peptides. It is filed as in vivo. The settings on record: inhibitor SB202190 10 μM vs DMSO control; FIG. 6F. The procedure:
(§3) The chick chorioallantoic membrane (CAM) assays were carried out with some modifications (19). For all experiments CAMs of 10-day-old chick embryos obtained from Charles River (North Franklin, CT) were separated from the shell membrane. Filter discs either non-treated (inflammation assays) pretreated (angiogenesis assays) with cortisone acetate (3.0 mg/ml) containing RPMI only or FGF-2 (40 ng). CAMs were either non-treated or treated topically with Mab XL313, XL166 or a non-specific control antibody (10 μg/embryo every 24 h for three consecutive treatments). […] At the end of the incubation period the embryos were sacrificed and the CAM tissues were analyzed. Angiogenesis was quantified by counting the number of angiogenic branching blood vessels within the area of the filter disc. The angiogenic index was determined by subtracting the mean number of blood vessel branch points from untreated CAMs from each experimental condition. Eight to twelve embryos were used per condition and experiments were repeated at least three times.
To examine this possibility, the effects of the RGDKGE (SEQ ID NO. 1) containing collagen peptide on angiogenesis and inflammation in the chick CAM were assessed.

Experiment [5] has the same test system. As to the kind of experiment: Chick CAM inflammation assay, FGF-2 induced, antibody treatment. It is filed as in vivo. The settings on record: chick CAM, FGF-2 stimulated; vs no treatment or control antibody; FIG. 3E. The procedure: as §3, with “Eight to twelve embryos were used per condition and experiments were repeated at least three times.” left out
The chick CAM has been routinely used to assess inflammation and granulation tissue formation, which are largely dependent on infiltration of chick heterophils (the avian equivalent of neutrophils), macrophages and activated fibroblasts (36,37). To study the potential differential biological impact of RGD epitopes, FGF-2 induced inflammation was examined by carrying out similar experiments in the absence of cortisone acetate and quantifying CAM thickening. […]

Experiment [6] shares this test system. The experiment in a line: Chick CAM inflammation assay, induction by RGD collagen peptides. It is filed as in vivo. Particulars: chick CAM, no cortisone acetate; FIG. 5D. The method, then:
as §3
The effects of the soluble RGD containing collagen peptides on inflammation were examined.

The subject of experiment [7] is Fak. As to the kind of experiment: Fak phosphorylation in endothelial cells attached to collagen peptides. It is filed as cell-based, human. The settings on record: serum free conditions. The procedure:
Whole cell and CAM tissue lysates were collected in RIPA buffer supplemented with 1× protease inhibitor and 1× phosphatase inhibitor and were run on polyacrylamide gels using denaturing conditions. Prior to loading the gels, 6× sample buffer was added to each of the lysates (final concentration 1×) and boiled for five minutes. Twenty to 50 μg of total protein were loaded into each lane. For detection of proteins larger than 50 kD, 10% gels were used; for proteins smaller than 50 kD 15% gels were used. Gels were run at 60 volts (v) until the dye front passed through the stacking gel, and then the voltage was increased to 100V for the remainder of the separation. Precision Plus protein standards (Bio-Rad) were used to visualize migration. […] Western blot bands were quantified using Image J software based on pixel intensity.
as §2

Experiment [8] deals with HUVEC. The experiment in a line: Cell proliferation assay, HUVEC. It is filed as cell-based, human. Particulars: peptide 100 ng/ml, 24 hours; FIG. 8C. The procedure: (§4) HUVECs (WT, shYAP1 or control transfected) or HRMVECs were plated at 2,000 cells per well with complete EGM-2 media containing 2.0% FBS in the absence or presence of P-1, P-2 or P-C (100 ng/ml) and allowed to grow for 24 hours. Cell growth was monitored using a BrdU or MMT assay kits according to manufacturer's instructions. All assays were completed at least three times in triplicate wells.

The test system of experiment [9] is HRMVEC. As to the kind of experiment: Cell proliferation assay, HRMVEC. It is filed as cell-based, human. The settings on record: peptide 100 ng/ml, 24 hours; FIG. 8D. The procedure:
as §4

Experiment [10] relates to human dermal fibroblasts. As to the kind of experiment: Cell adhesion to immobilized RGD collagen peptides, HDF. It is filed as cell-based. The settings on record: peptides immobilized 100 μg/ml; FIG. 1D. The procedure: (§5) RGD peptides (P-1, P-2, P-3, P-4, P-5, and P-C) were immobilized (100 μg/ml) to wells. HUVEC, HMVEC, HRMVEC, and HDF cells were suspended in adhesion buffer (RPMI containing 1 mM MgCl2, 0.2 mM MnCl2 and 0.5% BSA) and 1×10^5 cells were seeded into the wells in the presence or absence of P4C10, LM609, P1F6 or control antibodies (100 μg/ml). Cells were allowed to attach for 25 min at 37° C. Media containing non-attached cells was aspirated and attached cells were washed with PBS and stained with crystal violet. Cell adhesion was quantified by measuring the optical density of eluted dye. Adhesion assays were completed at least three times with triplicate wells.

Experiment [11] concerns human retinal microvascular endothelial cells (HRMVEC). The experiment in a line: Cell adhesion to immobilized RGD collagen peptides, HRMVEC. It is filed as cell-based. The settings on record: peptides immobilized 100 μg/ml; FIG. 1C. The method, then:
as §5

Experiment [12] deals with human microvascular endothelial cells (HMVEC). As to the kind of experiment: Cell adhesion to immobilized RGD collagen peptides, HMVEC. The settings on record: peptides immobilized 100 μg/ml; FIG. 1B. It is filed as cell-based. The procedure:
as §5

Experiment [13] has as its system human umbilical vein endothelial cell (HUVEC). As to the kind of experiment: Cell adhesion to immobilized RGD collagen peptides, HUVEC. It is filed as cell-based. Particulars: peptides immobilized 100 μg/ml; 25 min at 37° C; FIG. 1A. The method, then:
as §5

Experiment [14] concerns endothelial cells in which YAP was knocked down. The experiment in a line: Cell proliferation assay, endothelial cells transduced with YAP specific shRNA. It is filed as cell-based, human. The settings on record: soluble peptide (FIG. 8H) or VEGF 50 ng/ml (FIG. 8I). The procedure:
as §4
Raw cells were transfected with 1 μg of HuSH shRNA plasmids for collagen type I, alpha 2 using Amaxa cell line nucleofector kit V (program #T024). Constructs expressing 21-nucleotide short hairpin RNAs (shRNA) targeting human YAP (shYAP) or non-targeting control (shNT, Sigma-Aldrich, SHC002) were used. Humantargeting shYAP1 lentiviral shRNA was obtained from the Thermo Scientific RNAi consortium (TRCN0000107625). Constructs were packaged into lentivirus, pseudotyped with the vesicular stomatitis virus glycoprotein. Transduction was performed by incubating cells with lentivirus, and stably transduced cells were subsequently used for studies. All cell lines were verified by morphology and mouse and human YAP-specific PCR. […] Endothelial cells were certified mycoplasma-negative by PCR (Lonza), and primary cell cultures were used within the indicated passage numbers. Cells were transduced and selected using puromycin.
Endothelial cells with YAP specific or non-specific shRNAs were transduced.

With `CC(C)(C)n1nc(-c2ccc(Cl)cc2)c2c(N)ncnc21` [PP2, reference compound], in [1], the “reduction of nuclear YAP accumulation in P-2 stimulated endothelial cells as compared to control” value was “approximately 50%”. For the same molecule, the “P38MAPK phosphorylation following binding to collagen peptide P-2, with inhibitor” value in experiment [2] is given as “reduced”. In experiment [3], the “β3 phosphorylation following binding to collagen peptide P-2, with inhibitor” value was “reduced”.

As for `Oc1ccc(-c2nc(-c3ccncc3)c(-c3ccc(F)cc3)[nH]2)cc1` [SB202190, reference compound], the “reduction of nuclear YAP accumulation in P-2 stimulated endothelial cells as compared to control” value in [1] is reported as “approximately 50%”. Also, in experiment [4], the “effect on P-2 induced angiogenesis in the chick CAM” value is “reduced”.

For the molecule `CC(=O)OCC(=O)[C@@]1(O)CC[C@H]2[C@@H]3CCC4=CC(=O)CC[C@]4(C)[C@H]3C(=O)C[C@@]21C` [cortisone acetate, reference compound], the “reduction of CAMs exhibiting inflammation (thickening)” value in [5] is “greater than 80%”.

“KGDRGDAPG [Mab P-1, Synthetic RGDAPG containing collagen type-I peptide, Colla1 742-750; made with flanking cysteines (…)]”: the “CAM inflammation following stimulation with peptide” value in experiment [6] is given as “Minimal evidence of tissue inflammation”. In addition, the “Fak phosphorylation following ligation of peptide” value in experiment [7] was “Minimal Fak phosphorylation”. Also, the “HUVEC growth with soluble peptide” value in [8] is on record as “minimal effect”. Besides, in [9], the “HRMVEC growth with soluble peptide” value is “minimal effect”.

Turning to QGPSGAPGE [P-C, reference compound], the “CAM inflammation following stimulation with peptide” value in experiment [6] is listed as “Minimal evidence of tissue inflammation”. In addition, the “HDF adhesion to immobilized peptides” value in experiment [10] is on record as “failed to support interactions”. In [11], the “HRMVEC adhesion to immobilized peptides” value is recorded as “failed to support interactions”. Further, the “HMVEC adhesion to immobilized peptides” value in experiment [12] is given as “failed to support interactions”. The “HUVEC adhesion to immobilized peptides” value in experiment [13] is on record as “failed to support adhesion”.

For “RGPRGDQGP [Mab P-5, Synthetic RGD containing collagen type-I peptide, Colla2 819-827 (…)]”, the “HUVEC adhesion to immobilized peptides” value in experiment [13] is on record as “highest levels of adhesion”.

Take VEGF: the “endothelial cell growth in YAP knock down cells” value in [14] is on record as “enhanced growth”.
